Source: ChEMBL document CHEMBL4376886, “Design, Synthesis, and Evaluation of Novel Enterovirus 71 Inhibitors as Therapeutic Drug Leads for the Treatment of Human Hand, Foot, and Mouth Disease” (J Med Chem, 2020)

What was measured:
[1] = Inhibition of capsid protein VP1 in Enterovirus 71 (FY)-Luc infected in human RD cells assessed as reduction in virus-induced cell death preincubated for 24 hrs followed by […] substrate addition and measured after 5 mins by chemiluminescence analysis; format: cell-based, Enterovirus A71; conditions: Enterovirus A
[2] = Cytotoxicity against human RD cells assessed as reduction in cell viability incubated for 24 hrs by MTT assay; conditions: RD cells
[3] = Acute toxicity in juvenile zebrafish assessed as fatality rate at 200 uM after 24 hrs; conditions: in vivo
[4] = Acute toxicity in juvenile zebrafish assessed as fatality rate at 20 uM after 24 hrs; conditions: in vivo
[5] = Acute toxicity in juvenile zebrafish assessed as fatality rate at 50 uM after 24 hrs; conditions: in vivo
[6] = Acute toxicity in juvenile zebrafish assessed as fatality rate at 100 uM after 24 hrs; conditions: in vivo
[7] = Acute toxicity in juvenile zebrafish assessed as fatality rate at 20 uM after 48 hrs; conditions: in vivo
[8] = Acute toxicity in juvenile zebrafish assessed as fatality rate at 50 uM after 48 hrs; conditions: in vivo
[9] = Acute toxicity in juvenile zebrafish assessed as fatality rate at 100 uM after 48 hrs; conditions: in vivo
[10] = Acute toxicity in juvenile zebrafish assessed as fatality rate at 200 uM after 48 hrs; conditions: in vivo
in vivo [11] = conditions: zebrafish
Description: Acute toxicity in juvenile zebrafish assessed as fatality rate at 150 uM after 24 hrs

in vivo [12] = conditions: zebrafish; remark: listed apart in the source
Description: Acute toxicity in juvenile zebrafish assessed as fatality rate at 150 uM after 48 hrs

[13] = Acute toxicity in juvenile zebrafish assessed as pericarditis at 100 uM after 24 hrs; design: species or system Danio rerio; conditions: in vivo

CCc1nc(-c2cc(C)c(OCCC(C)CCN3CCN(c4ccnc(N)c4)C3=O)c(C)c2)no1 (stereo not given)
EC50 [1]: > 25 nM
CC50 at 24 h [2]: 15.7 µM

CCO/N=C/c1ccc(OCCC(C)CCN2CCN(c3ccnc(O)c3)C2=O)cc1 (stereo not given)
EC50 [1]: > 25 nM
CC50 at 24 h [2]: > 100 µM

CCO/N=C/c1ccc(OCCC(C)CCN2CCN(c3cccc(N)c3)C2=O)cc1 (stereo not given)
EC50 [1]: > 25 nM
CC50 at 24 h [2]: > 100 µM

CCc1nc(-c2ccc(OCCC(C)CCN3CCN(c4ccnc(N)c4)C3=O)cc2)no1 (stereo not given)
EC50 [1]: 0.0084 nM
CC50 at 24 h [2]: > 100 µM
mortality at 24 h, 200 µM [3]: 100%
mortality at 24 h, 20 µM [4]: 40%
mortality at 24 h, 50 µM [5]: 10%
mortality at 24 h, 100 µM [6]: 30%
mortality at 48 h, 20 µM [7]: 60%
mortality at 48 h, 50 µM [8]: 100%
mortality at 48 h, 100 µM [9]: 100%
mortality at 48 h, 200 µM [10]: 100%
mortality at 24 h, 150 µM (in vivo [11]): 80%
mortality at 48 h, 150 µM (in vivo [12]): 100%

CCO/N=C/c1ccc(OCCC(C)CCN2CCN(c3ccccc3)C2=O)cc1 (stereo not given)
EC50 [1]: 1.12 nM
CC50 at 24 h [2]: > 100 µM
mortality at 24 h, 200 µM [3]: 100%
mortality at 24 h, 20 µM [4]: 100%
mortality at 24 h, 50 µM [5]: 100%
mortality at 24 h, 100 µM [6]: 100%
mortality at 48 h, 20 µM [7]: 100%
mortality at 48 h, 50 µM [8]: 100%
mortality at 48 h, 100 µM [9]: 100%
mortality at 48 h, 200 µM [10]: 100%
mortality at 24 h, 150 µM (in vivo [11]): 100%
mortality at 48 h, 150 µM (in vivo [12]): 100%

CCO/N=C/c1cc(C)c(OCCC(C)CCN2CCN(c3ccnc(N)c3)C2=O)c(C)c1 (stereo not given)
EC50 [1]: > 25 nM
CC50 at 24 h [2]: 12.8 µM

CC(CCOc1ccc(/C=N/O)cc1)CCN1CCN(c2ccnc(N)c2)C1=O (stereo not given)
EC50 [1]: > 25 nM
CC50 at 24 h [2]: > 100 µM

CCCc1nc(-c2ccc(OCCC(C)CCN3CCN(c4ccnc(N)c4)C3=O)cc2)no1 (stereo not given)
EC50 [1]: 0.15 nM
CC50 at 24 h [2]: > 100 µM
mortality at 24 h, 200 µM [3]: 100%
mortality at 24 h, 20 µM [4]: 40%
mortality at 24 h, 50 µM [5]: 100%
mortality at 24 h, 100 µM [6]: 100%
mortality at 48 h, 20 µM [7]: 60%
mortality at 48 h, 50 µM [8]: 100%
mortality at 48 h, 100 µM [9]: 100%
mortality at 48 h, 200 µM [10]: 100%
mortality at 24 h, 150 µM (in vivo [11]): 100%
mortality at 48 h, 150 µM (in vivo [12]): 100%

CC(CCOc1ccc(-c2noc(C(F)(F)F)n2)cc1)CCN1CCN(c2ccnc(N)c2)C1=O (stereo not given)
EC50 [1]: 0.537 nM
CC50 at 24 h [2]: 48.1 µM
mortality at 24 h, 200 µM [3]: 100%
mortality at 24 h, 20 µM [4]: 0%
mortality at 24 h, 50 µM [5]: 30%
mortality at 24 h, 100 µM [6]: 70%
mortality at 48 h, 20 µM [7]: 0%
mortality at 48 h, 50 µM [8]: 50%
mortality at 48 h, 100 µM [9]: 100%
mortality at 48 h, 200 µM [10]: 100%
mortality at 24 h, 150 µM (in vivo [11]): 80%
mortality at 48 h, 150 µM (in vivo [12]): 100%

CC(=O)Nc1cc(N2CCN(CCCCCOc3ccc(-c4noc(C)n4)cc3)C2=O)ccn1
EC50 [1]: > 25 nM
CC50 at 24 h [2]: > 100 µM

CC(CCN1CCN(Cc2ccccc2)CC1)CCN1CCN(c2ccnc(N)c2)C1=O (stereo not given)
EC50 [1]: > 25 nM
CC50 at 24 h [2]: > 100 µM

CCONCc1ccc(OCCC(C)CCN2CCN(c3ccnc(N)c3)C2=O)cc1 (stereo not given)
EC50 [1]: 0.0119 nM
CC50 at 24 h [2]: 7.37 µM

CCO/N=C/c1ccc(OCCCCCN2CCN(c3ccnc(N)c3)C2=O)cc1
EC50 [1]: 0.072 nM
CC50 at 24 h [2]: 59 µM
mortality at 24 h, 200 µM [3]: 100%
mortality at 24 h, 20 µM [4]: 20%
mortality at 24 h, 50 µM [5]: 0%
mortality at 24 h, 100 µM [6]: 100%
mortality at 48 h, 20 µM [7]: 20%
mortality at 48 h, 50 µM [8]: 100%
mortality at 48 h, 100 µM [9]: 100%
mortality at 48 h, 200 µM [10]: 100%
mortality at 24 h, 150 µM (in vivo [11]): 100%
mortality at 48 h, 150 µM (in vivo [12]): 100%

CCCc1nc(-c2cc(C)c(OCCC(C)CCN3CCN(c4ccnc(N)c4)C3=O)c(C)c2)no1 (stereo not given)
EC50 [1]: > 25 nM
CC50 at 24 h [2]: 14.1 µM

Cc1cc(-c2noc(C(F)(F)F)n2)cc(C)c1OCCC(C)CCN1CCN(c2ccnc(N)c2)C1=O (stereo not given)
EC50 [1]: > 25 nM
CC50 at 24 h [2]: > 100 µM

CCO/N=C/c1ccc(OCCC(C)CCN2CCN(c3ccnc(OC)c3)C2=O)cc1 (stereo not given)
EC50 [1]: 10 nM
CC50 at 24 h [2]: > 100 µM
mortality at 24 h, 200 µM [3]: 100%
mortality at 24 h, 20 µM [4]: 100%
mortality at 24 h, 50 µM [5]: 100%
mortality at 24 h, 100 µM [6]: 100%
mortality at 48 h, 20 µM [7]: 100%
mortality at 48 h, 50 µM [8]: 100%
mortality at 48 h, 100 µM [9]: 100%
mortality at 48 h, 200 µM [10]: 100%
mortality at 24 h, 150 µM (in vivo [11]): 100%
mortality at 48 h, 150 µM (in vivo [12]): 100%

CCO/N=C/c1ccc(OCC#CCN2CCN(c3ccnc(N)c3)C2=O)cc1
EC50 [1]: > 25 nM
CC50 at 24 h [2]: > 100 µM

Cc1nc(-c2ccc(OCCC(C)CCN3CCN(c4ccnc(N)c4)C3=O)cc2)no1 (stereo not given)
EC50 [1]: 0.0061 nM
CC50 at 24 h [2]: 66.1 µM
mortality at 24 h, 200 µM [3]: 100%
mortality at 24 h, 20 µM [4]: 0%
mortality at 24 h, 50 µM [5]: 0%
mortality at 24 h, 100 µM [6]: 0%
mortality at 48 h, 20 µM [7]: 0%
mortality at 48 h, 50 µM [8]: 0%
mortality at 48 h, 100 µM [9]: 100%
mortality at 48 h, 200 µM [10]: 100%
mortality at 24 h, 150 µM (in vivo [11]): 10%
mortality at 48 h, 150 µM (in vivo [12]): 100%

CCO/N=C/c1ccc(OCCCCN2CCN(c3ccnc(N)c3)C2=O)cc1
EC50 [1]: > 25 nM
CC50 at 24 h [2]: > 100 µM

CC(CCOc1ccc(-c2noc(C(C)(C)C)n2)cc1)CCN1CCN(c2ccnc(N)c2)C1=O (stereo not given)
EC50 [1]: 0.0092 nM
CC50 at 24 h [2]: 55 µM
mortality at 24 h, 200 µM [3]: 100%
mortality at 24 h, 20 µM [4]: 0%
Activity [13]: Toxic
mortality at 24 h, 50 µM [5]: 0%
mortality at 24 h, 100 µM [6]: 80%
mortality at 48 h, 20 µM [7]: 0%
mortality at 48 h, 50 µM [8]: 0%
mortality at 48 h, 100 µM [9]: 100%
mortality at 48 h, 200 µM [10]: 100%
mortality at 24 h, 150 µM (in vivo [11]): 100%
mortality at 48 h, 150 µM (in vivo [12]): 100%

Cc1nc(-c2cc(C)c(OCCC(C)CCN3CCN(c4ccnc(N)c4)C3=O)c(C)c2)no1 (stereo not given)
EC50 [1]: > 25 nM
CC50 at 24 h [2]: 28.8 µM

CCONC(=O)c1ccc(OCCC(C)CCN2CCN(c3ccnc(N)c3)C2=O)cc1 (stereo not given)
EC50 [1]: > 25 nM
CC50 at 24 h [2]: > 100 µM
